Key:
[1] = test system: IL-1α gene expression in human keratinocytes; experiment: Real-time PCR quantification of gene expression in TNF-α stimulated keratinocytes; assay type: cell-based; settings: keratinocytes pre-treated with compound, then TNF-α; FIG. 1B
Protocol: (§1) The cells (human keratinocytes acquired from Life Technologies) have been pretreated for 24 hours with 1A or 1B and subsequently stimulated with cytokines, otherwise referred to as Tumor Necrosis Factor, TNF-α, in order to mimic an inflammatory process.
The cell response has also been set out by means of real-time PCR measurements, which are intended to quantify the gene expression (the production of IL-1α is an activity that is codified by specific genes). In FIG. 1B, the so-called “control” is the response of the non-stimulated cells (absence of inflammatory process), “TNF-α” is the response of the cells stimulated with cytokine, while “1A+TNF-α” and “1B+TNF-α” are the responses obtained with the cells pre-treated with 1A and 1B, respectively.

[2] = Photochemiluminescence antioxidant test (Photochem, luminol); settings: superoxide radical, FIG. 2
Protocol: For the study of the antioxidant activity, use was made of a photochemiluminescence test that allows evaluating the antioxidant capacity of the tested molecules with respect to the superoxide radical (O2^−); the latter is photochemically generated by means of UV radiations. The marker used is luminol, a molecule that is capable of emitting chemiluminescence when it is oxidized by free radicals; such emission of light is then measured by means of a suitable instrument (Analityk Jena AG: Photochem®—Antioxidants and Free Radicals). The presence of antioxidant substances in the reaction admixture deactivates the radical species by inhibiting the emission of chemiluminescence. The analysis is very rapid and sensitive. […]
Since the antioxidant activity cannot be measured in absolute terms, the common practice is to compare the activity of a compound with that of molecules having an antioxidant capacity that is already known, such as, for example, tocopherol (otherwise known as vitamin E). By comparing the recorded values with the measurements relating to the standard reference molecules ([…]), the antioxidant capacity of the product being examined is obtained.

neuronal cells = experiment: Neuro-protective activity, MTT assay, glutamate-induced death; assay type: cell-based; settings: FIG. 3; for neuro-protective activity on the death of neuronal cells caused by glutamate: MTT assay, pre-treatment before glutamate; for viability of the cells: neuronal cells, pre-treatment with compound then glutamate, MTT
[3] = test system: cell production of interleukin-1 (IL-1α) in human keratinocytes stimulated with TNF-α; experiment: Anti-inflammatory activity: IL-1α production in keratinocytes stimulated with TNF-α; assay type: cell-based; settings: human keratinocytes pretreated 24 hours with 10 μM solution, then TNF-α; negative control DMSO; FIG. 1A
Protocol: as §1
TNF-α induces inflammation in the cells treated, that is to say, the cell production of interleukin-1 (IL-1α).

Compound	gene expression (real-time PCR) [1]	moles having the antioxidant activity of 1 mole of ascorbic acid [2] [mol]	neuro-protective activity on the death of neuronal cells caused by glutamate (neuronal cells)	viability of the cells (neuronal cells) [%]	cell production of IL-1α [3]
Cc1ccc(O)c2c1CCC1C3CC[C@](O)(C(=O)CO)[C@@]3(C)CC(=O)[C@@]21O (stereo partly shown) [1A]	absence of gene expression	1.09	have a neuro-protective activity	~80	comparable with that of the negative control
Cc1ccc(O)c2c1CCC1C3CC[C@](O)(C(O)CO)[C@@]3(C)CC(=O)[C@@]21O (stereo partly shown) [1B]	absence of gene expression	1.18	have a neuro-protective activity	~80	comparable with that of the negative control

From patent US20200199170A1, “COMPOUNDS HAVING ANTI-INFLAMMATORY AND ANTI-OXIDANT ACTIVITY” (UNIVERSITÀ DEGLI STUDI DI FERRARA, priority 2015, published 2020)
